Test results taken from publication PMC12703733, “Probing Guanidino Pendant or Bridged Groups in Cyclic Antimicrobial Peptides Derived from Temporin L: A Strategy to Improve Efficacy against Gram-Negative Bacteria” (Journal of Medicinal Chemistry, 2025).
≈ marks a conversion by molar mass, not a printed value. Bridge positions count the residues as written; N and C are the ends. Square brackets hold non-standard residues; d marks the D form. Ends that are not written are not given here. Peptide text beside a SMILES is read from it. Phe(4-guanidino) = N=C(N)Nc1ccc(C[C@H](N)C(=O)O)cc1

Assays:
[1] = circular dichroism; settings: water; pH ns; 25 °C; 150 uM
[2] = test system: A. baumannii ATCC 19606; assay: microbe, parasite or virus in culture; assay type: cell-based; settings: ATCC 19606
Procedure: (§1) Bacterial strains used in this study were the Gram-positive S. aureus ATCC 25923, S. epidermidis ATCC 12228, B. megaterium BM11, S. [NT] 27591, E. faecalis ATCC 29212 and the Gram-negative E. coli ATCC 25922, P. aeruginosa ATCC 27853, A. baumannii ATCC 19606, E. coli D21 and P. aeruginosa PAO1. […] Bacterial cells in the mid log phase were diluted in Muller Hinton (MH) at a concentration of 2 × 10^6 cell/mL. […] Ciprofloxacin was used as antibiotic control. The plate was then incubated at 37 °C. MICs were obtained from three identical readings of four independent experiments.

[3] = test system: B. megaterium BM11; assay: microbe, parasite or virus in culture; assay type: cell-based; settings: BM11
Procedure: as §1

[4] = test system: E. coli ATCC 25922; assay: microbe, parasite or virus in culture; assay type: cell-based; settings: ATCC 25922
Procedure: as §1

[5] = test system: E. coli D21; assay: microbe, parasite or virus in culture; assay type: cell-based; settings: D21
Procedure: as §1

[6] = test system: E. faecalis ATCC 29212; assay: microbe, parasite or virus in culture; assay type: cell-based; settings: ATCC 29212
Procedure: as §1

[7] = test system: P. aeruginosa PAO1; assay: microbe, parasite or virus in culture; assay type: cell-based; settings: PAO1
Procedure: as §1

[8] = test system: S. agalactiae ATCC 27591; assay: microbe, parasite or virus in culture; assay type: cell-based; settings: ATCC 27591
Procedure: as §1

[9] = test system: S. aureus ATCC 25923; assay: microbe, parasite or virus in culture; assay type: cell-based; settings: ATCC 25923
Procedure: as §1

[10] = test system: S. epidermidis ATCC 12228; assay: microbe, parasite or virus in culture; assay type: cell-based; settings: ATCC 12228
Procedure: as §1

[11] = test system: all bacteria tested; assay: MIC panel, geometric mean over all strains; assay type: cell-based; settings: geometric mean of the MICs against all bacteria tested
Procedure: (§2) The antimicrobial efficacy of the TLcyc analogues was assessed against a representative panel of Gram-positive and Gram-negative bacterial strains, by determining their minimal inhibitory concentrations (MIC), as summarized in Table . To provide an integrated measure of antimicrobial potency, we calculated the geometric mean (GM) of MIC values across all strains (GMall), as well as separately for Gram-positive (GMGram+) and Gram-negative (GMGram–) bacteria.
(§3) Bacterial strains used in this study were the Gram-positive S. aureus ATCC 25923, S. epidermidis ATCC 12228, B. megaterium BM11, S. agalactiae ATCC 27591, E. faecalis ATCC 29212 and the Gram-negative E. coli ATCC 25922, P. aeruginosa ATCC 27853, A. baumannii ATCC 19606, E. coli D21 and P. aeruginosa PAO1. […] Bacterial cells in the mid log phase were diluted in Muller Hinton (MH) at a concentration of 2 × 10^6 cell/mL. Aliquots of 50 μL of this bacterial suspension were added to 50 μL of MH containing serial 2-fold dilutions of the peptides (from 100 to 0.19 μM) in the wells a 96-well plate. Ciprofloxacin was used as antibiotic control. The plate was then incubated at 37 °C. MICs were obtained from three identical readings of four independent experiments.

[12] = test system: Gram-positive bacteria tested; assay: MIC panel, Gram-positive strains (geometric mean, range); assay type: cell-based; settings: geometric mean of the MICs against Gram-positive bacteria tested
Procedure: as §2, §3

[13] = test system: Gram-negative bacteria tested; assay: MIC panel, Gram-negative strains (geometric mean); assay type: cell-based; settings: geometric mean of the MICs against Gram-negative bacteria tested
Procedure: as §2, §3

[14] = assay type: cell-based, human; settings: human
Procedure: (§4) For the evaluation of peptides’ cytotoxicity, the human immortalized keratinocytes (HaCaT cells), purchased from AddexBio (San Diego, CA, USA), and BEAS-2B were used. HaCaT cells were cultured in Dulbecco’s modified Eagle’s medium supplemented with 4 mM glutamine (DMEM), 10% heat-inactivated fetal bovine serum (FBS), and 0.1 mg/mL of penicillin and streptomycin, at 37 °C and 5% CO2. BEAS-2B cells were cultured in RPMI, supplemented with 2 mM glutamine (DMEM), 10% heat-inactivated fetal bovine serum (FBS), 1 mM sodium pyruvate, and 0.1 mg/mL of penicillin and streptomycin, at 37 °C and 5% CO2. Cytotoxicity was tested in vitro using a colorimetric assay that relies on the intracellular reduction of the yellow 3-(4,5-dimethylthiazol-2-yl)-2,5-diphenyltetrazolium bromide salt (MTT) by mitochondrial dehydrogenases of metabolically active cells in formazan crystals (purple). About 4 × 10^4 HaCaT and BEAS-2B cells, suspended in DMEM supplemented with 2% FBS, were plated in triplicate wells of a 96-well microtiter plate. The plate was incubated overnight at 37 °C and 5% CO2. Then, the cells were treated with different concentrations of the peptide (from 100 to 3.12 μM) in a fresh serum-free medium for 2 h and for a longer time (24 h). Following peptide treatment, the medium was removed, and MTT (0.5 mg/mL) solution in Hank’s buffer (136 mM NaCl, 4.2 mM Na2HPO4, 4.4 mM KH2PO4, 5.4 mM KCl, 4.1 mM NaHCO3, pH 7.2, supplemented with 20 mM D-glucose) was added to each well of the plate, that was then incubated for 4 h at 37 °C and 5% CO2. The purple formazan crystals were dissolved using acidified 2-propanol and a microplate reader (Infinite M200; Tecan, Salzburg, Austria) was used to measure the absorbance of each well at 570 nm. The percentage of cell viability was calculated compared to the control, which consisted of cells without any peptide treatment (corresponding to 100% viability) and all data represent the mean of three independent experiments ± SEM.

[15] = test system: human keratinocytes (HaCaT cells); assay type: cell-based; settings: human, 24 h
Procedure: as §4

[16] = Circular dichroism in water (BeStSel); assay type: physicochemical; settings: predicted from CD spectra in H2O using BeStSel
Procedure: The secondary structure of each peptide was studied in solution and in small unilamellar vesicles (SUVs) mimicking Gram-positive and Gram-negative membranes performing CD analysis. The CD spectrum for each peptide in solution was recorded at 150 μM, using the quartz cells of 0.1 cm path length with a Jasco J-1500 CD Spectrometer at 25 °C. SUVs at the concentration of 150 μM (P/L = 1) and […] (P/L = 0.4) were prepared as reported: the lipid film was hydrated with water for 1h and then sonicated for 30 min. CD spectra were recorded at the peptide/lipid ratio of 1:1 both in the presence with SUVs mimicking Gram-positive and Gram-negative membranes. CD spectra were recorded at 25 °C on a in a 0.1 cm quartz cell using three consecutive scans from 260 to 190 nm, 3 nm bandwidth, a time constant of 16 s, and a scan rate of 10 nm/min.

[17] = background value; cited from earlier work
[18] = test system: methicillin-resistant Staphylococcus aureus (MRSA); settings: MRSA strain; ref Verma et al.; cited from earlier work
[19] = target: the molecule itself; assay: Thioflavin T fluorescence; LUVs of DOPE:DOPG:CL (65:23:12, mol/mol/mol) mimicking the Gram-negative membrane, 100 uM lipid, titrated with 5-50 uM peptide; 100 mM NaCl, 10 mM Tris-HCl, 25 uM ThT, pH 7.4; peptide oligomerisation within the vesicles

CC[C@H](C)[C@H](NC(=O)[C@H](CCCNC(=N)N)NC(=O)[C@H]1CCC(=O)NCCCC[C@H](NC(=O)[C@H](Cc2ccccc2)NC(=O)[C@H](Cc2c[nH]c3ccccc23)NC(=O)[C@@H]2CCCN2C(=O)[C@@H](NC(=O)[C@@H](N)Cc2ccccc2)C(C)C)C(=O)N[C@@H](CCCNC(=N)N)C(=O)N[C@@H](Cc2ccccc2)C(=O)N[C@H](CC(C)C)C(=O)N1)C(=O)N[C@@H](CC(C)C)C(N)=O [Peptide 9, FVPWF[KRFle]RIL] (H-FVPWFKRF[dL][dE]RIL-NH2; lactam 6-10)
helicity [1]: 11%
MIC [2]: 3.12 µM (≈ 5.4 µg/mL)
MIC [3]: 1.56 µM (≈ 2.7 µg/mL)
MIC [4]: 6.25 µM (≈ 10.8 µg/mL)
MIC [5]: 6.25 µM (≈ 10.8 µg/mL)
MIC [6]: 12.5 µM (≈ 21.7 µg/mL)
MIC [7]: 50 µM (≈ 86.6 µg/mL)
MIC [8]: 3.12 µM (≈ 5.4 µg/mL)
MIC [9]: 6.25 µM (≈ 10.8 µg/mL)
MIC [10]: 3.12 µM (≈ 5.4 µg/mL)
geometric mean GMall [11]: 7.67 µM
geometric mean GMGram+ [12]: 4.11 µM
geometric mean GMGram– [13]: 14.32 µM
CC50 at 24 h ([14]; CC50): > 50 µM
viability at 2 h, 3.12 µM ([14]; Cell viability (%)): 106%
viability at 2 h, 6.25 µM ([14]; Cell viability (%)): 106%
viability at 2 h, 12.5 µM ([14]; Cell viability (%)): 98%
viability at 2 h, 25 µM ([14]; Cell viability (%)): 94%
viability at 2 h, 50 µM ([14]; Cell viability (%)): 74%
viability at 2 h, 100 µM ([14]; Cell viability (%)): 22%
viability at 24 h, 3.12 µM ([14]; Cell viability (%)): 115 ± 23%
viability at 24 h, 6.25 µM ([14]; Cell viability (%)): 109 ± 24%
viability at 24 h, 12.5 µM ([14]; Cell viability (%)): 112 ± 20%
viability at 24 h, 25 µM ([14]; Cell viability (%)): 120 ± 13%
viability at 24 h, 50 µM ([14]; Cell viability (%)): 82 ± 10%
viability at 24 h, 100 µM ([14]; Cell viability (%)): 4 ± 2%
CC50 [15]: 54.3 µM
Content in water (%) random [16]: 53%
Content in water (%) α-helix [16]: 11%
Content in water (%) β-strand [16]: 36%

N=C(N)NCCC[C@H](N)C(=O)O [arginine]
pK a1 [17]: 2.18
pK a2 [17]: 9.09
pK a3 [17]: 13.20

NCCCC[C@H](N)C(=O)O [lysine]
pK a [17]: 10.94

FVQWFSKFLGRIL [TL, 13-mer linear antimicrobial peptide from Rana temporaria]
MIC [18]: 6.25 µM

B1: peptide 2 (cyclic Temporin L analogue; TLcyc with D-Glu at position 10) (peptide, UniProt P57104 1-13, looked up)
peptide: FVPWFKKF[dL][dE]RIL-NH2
modifications: lactam 6-10
notes: peptide 2 is the [Pro3,DLeu9]TL frame cyclised between positions 6 (Lys) and 10 (D-Glu); Free N-terminal amine; also called compound 2; source: synthetic peptide (Fmoc-based US-SPPS, RP-HPLC purified, >97%)
% aggregation at P/L 0.5 [19]: ~60%

B2: peptide 6 (cyclic Temporin L analogue with a guanidino pendant on the para position of Phe1) (peptide, UniProt P57104 1-13, looked up)
peptide: [Phe(4-guanidino)]VPWFKKF[dL][dE]RIL-NH2
modifications: lactam 6-10; N-terminus assumed
SMILES: CC[C@H](C)[C@H](NC(=O)[C@H](CCCNC(=N)N)NC(=O)[C@H]1CCC(=O)NCCCC[C@H](NC(=O)[C@H](Cc2ccccc2)NC(=O)[C@H](Cc2c[nH]c3ccccc23)NC(=O)[C@@H]2CCCN2C(=O)[C@@H](NC(=O)[C@@H](N)Cc2ccc(NC(=N)N)cc2)C(C)C)C(=O)N[C@@H](CCCCN)C(=O)N[C@@H](Cc2ccccc2)C(=O)N[C@H](CC(C)C)C(=O)N1)C(=O)N[C@@H](CC(C)C)C(N)=O
notes: peptide 6 is peptide 2 with (p-guanidino)Phe in place of Phe1; also called compound 6; source: synthetic peptide (Fmoc-based US-SPPS, RP-HPLC purified, >97%)
% aggregation at P/L 0.5 [19]: ~40%

B3: peptide 7 (cyclic Temporin L analogue with a guanidino pendant at position 4 of the Pro3 ring) (peptide, UniProt P57104 1-13, looked up)
peptide: FV[Pro(4-guanidino)]WFKKF[dL][dE]RIL-NH2
modifications: lactam 6-10
notes: peptide 7 is peptide 2 with (4-guanidino)Pro in place of Pro3; also called compound 7; source: synthetic peptide (Fmoc-based US-SPPS, RP-HPLC purified, >97%)
% aggregation at P/L 0.5 [19]: ~60%
